Patent US12344587B2, “Synthetic retinoids for use in RAR activation” (UNIVERSITY OF DURHAM, priority 2019, dated 2025)

Columns and labels:
Type in all cases: cell-based
[1] = test system: rat mixed primary neuronal/glial cultures; experiment: Regulation of Alzheimer's disease related genes (qPCR); conditions: 10 nM retinoid 24 hours after 1 μg/ml lipopolysaccharide 6 hours
Protocol: To examine the influence retinoids may have on the expression of genes involved in Alzheimer's disease, the expression of a group of Alzheimer's-related genes in rat mixed primary neuronal/glial cultures was assessed following retinoid treatment.
Approximately 300,000 rat neuronal/glial cells were treated first with 1 μg/ml lipopolysaccharide (Sigma-Aldrich) for 6 hours to induce inflammation. Following the induction of inflammation, cells were treated with 10 nM retinoids for 24 hours. […] Following treatment, RNA was extracted from the treated cells for qPCR analysis.
Total RNA was extracted using a Qiagen RNeasy mini kit (CAT # 74104, Qiagen) according to the manufacturer's protocol. Briefly, cell and brain tissue samples were homogenized in 350 μl and 1200 μl of RLT buffer mixed with β-ME (1 ml buffer: 10 μl β-ME ratio) respectively. Then, samples were centrifuged for 3 min at 13,000 rpm. The supernatant was first mixed with 70% ethanol at a 1:1 volume ratio (CAT # E7023, Sigma-Aldrich) before transferring it to a spin column placed in a collection tube. The samples were centrifuged for 1 min at 10,000 rpm to bind RNA to the membrane of the spin column.
For the on-column DNase digestion, the samples in the columns were washed with 350 μl RW1 buffer and centrifuged at 10,000 rpm for 1 min. Then, 80 μl of the DNase mixture (10 μl DNase enzyme with 70 μl RDD buffer; CAT # 79254, Qiagen) was added above each sample. Samples were incubated at room temperature for 15 min before adding 350 μl RW1 buffer. Samples were centrifuged at 10,000 rpm for 1 min.
Afterwards, 500 μl of RPE buffer (mixed with 100% ethanol at 1:4 ratio) was added above the samples. Samples were centrifuged for 1 min at 10,000 rpm (the step was repeated 2 times). The spin columns were centrifuged again at 13,000 rpm for 1 min to dry the membranes. The spin columns were removed from the collection tubes and placed inside another 1.5 ml RNase free collection tubes. The RNA was eluted by adding 30 μl of RNase free water directly to the spin column membrane. The samples were incubated 5 min at room temperature before spinning them for 1 min at 10,000 rpm.
RNA concentration was measured using a NanoDrop™ 2000c spectrophotometer (Thermo Fisher Scientific). The instrument was calibrated using the RNase free water used to elute the RNA as a blank and 2 μl was used of each RNA sample. RNA samples were stored in a −70° C. freezer to minimize RNA degradation.
qPCR reactions were performed using PerfeCTa SYBR Green SuperMix (CAT # 733-1246, VWR). 10 μl of reaction mix was added to each well of a 384-well plate (CAT # 04729749001, Roche) in triplicate. Each reaction contained 2 μl of 4 times diluted cDNA template, 5 μl 2×SYBR green mix and 250 nM primers.
Primers were designed using Primer-BLAST with melting temperatures of about 60° C. Before using them in qPCR, the primers were checked for specificity by PCR and the PCR products were sent for sequencing.
Standard curves (made using 5-fold dilutions of the stock cDNA) and blank controls were run for all sets of primers tested in qPCR. The plates were then sealed and centrifuged briefly to ensure all the reagents were at the base of the wells. The plates were run on a Roche LightCycler 480 that was programmed to hold the plate at 95° C. for 5 min. The qPCR then ran for 45 cycles of 95° C. for 15 seconds (s), 60° C. for 15 s and 72° C. for 15 s. Afterwards, the melting curve was obtained by running the plate at 95° C. for 5 s followed by 58° C. for 1 min.
Results were analysed using the delta delta CT method within the LightCycler 480 1.5 software. The expression of genes of interest was normalized to the appropriate reference gene according to each experiment.

[2] = test system: retinoic acid response element (RARE); experiment: X-Gal RA based reporter assay (genomic activity); conditions: for Genomic Activity (X-Gal RA Based Reporter Assay) Efficacy (Emax) / EC50: Sil-15 reporter cells, overnight incubation; for EC50: read-out: Genomic Activity (X-Gal RA Based Reporter Assay) Potency (EC50); for Genomic activity and potency compared to retinoic acid (ATRA): X-Gal assay, versus ATRA
Protocol: The genomic activity of synthetic retinoids was evaluated by determining their efficiency of inducing transcription using the X-Gal Assay. The X-Gal Assay utilizes Sil-15 reporter cells in which the transcription of the LacZ gene is under control of a promoter linked to a retinoic acid response element (RARE). After treatment of the reporter cells with retinoids, the ability of the compounds to induce transcription can be attained by monitoring and quantifying the activity of β-galactosidase produced by the reporter cells.
Sil-15 cells were plated at 100,000 cells per well in 96-well plates coated in 0.1% gelatin. The following day, serial dilutions of retinoid ligands, prepared in Dulbecco's Modified Eagle's Medium (DMEM) containing 10% foetal calf serum (FCS) were added at concentrations from 10^−6 M to 10^−14 M and the plates were incubated overnight. All concentrations for the ATRA standard curve and the other retinoid ligands were tested in triplicate.
The next day, the assay plates were washed twice with phosphate buffered saline (PBS), fixed with 100 μl per well of 1% glutaraldehyde and 1 mM MgCl2 in PBS for 15 minutes and washed twice with PBS. β-galactosidase activity was detected by the addition of 100 μl of freshly-prepared 0.2% X-Gal in 1 mM MgCl2, 3.3 mM potassium ferricyanide and 3.3 mM potassium ferrocyanide in PBS per well. Plates were incubated for 6 hours at 37° C. in 5% CO2 and colour change was detected by reading the plates at 650 nm on an Emax Precision Microplate Reader (Molecular Devices).

ERK1/2 = ERK1/2 phosphorylation assay, AlphaLISA SureFire Ultra (non-genomic activity); set-up: Non-genomic activity (ERK½ Phosphorylation Assay) Efficacy (Emax): unit not given here; conditions: SH-SY5Y cells; for EC50: Homo sapiens, 0.5 h, read-out: Non-genomic activity (ERK½ Phosphorylation Assay) Potency (EC50); for EC50 / Non-genomic activity (ERK½ Phosphorylation Assay) Efficacy (Emax): serum-free, 30 minutes stimulation; for Erk 1/2 phosphorylation potency/efficacy compared to retinoic acid: versus retinoic acid
Protocol: The non-genomic activity of synthetic retinoids was evaluated by measuring their ability to induce phosphorylation of ERK1/2 using the AlphaLISA® SureFire® Ultra ERK1/2 kit.
In this assay, SH-SY5Y cells (100,000 cells/well) were plated in 96-well plates and serum-starved in DMEM for 24 hours. Retinoids were tested at concentrations from 10−5 M to 10−11 M and at a final concentration of 0.1% DMSO in the medium. The assay was carried out on the SH-SY5Y cells in serum-free DMEM, cells were stimulated by retinoid for 30 minutes at 37° C.
At the end of the assay, the medium was removed, and cells were lysed in 50 μl of freshly prepared 1× lysis buffer (supplied in the kit). The 96-well plate was agitated on an orbital shaker (SO1, Stuart Scientific) at approximately 350 rpm for 10 minutes at room temperature.
In the meantime, the activation buffer was diluted 25-fold in the reaction buffers. Under green light in a dark room, the acceptor beads were diluted 50-fold in the freshly prepared reaction mix while the donor beads were diluted 50-fold in dilution buffer to obtain two final reaction mixtures.
10 μl of cell lysate was then transferred per well into 384-well white Proxiplates plates (PerkinElmer) and 5 μl of each prepared acceptor and donor reaction mixture was added under green light in a dark room. Plates were wrapped with aluminium foil and incubated at room temperature for at least 3 hours. Readings were taken using an Envision system (PerkinElmer Life Sciences) using the AlphaScreen® settings.

| SMILES | Expression of inflammation genes (Ccl5, TNFα and Nos2) [1] | Expression of neuroprotection genes (Abca1, Abcg1, Igf1 and Igf2) [1] | Expression of non-amyloidogenic pathway genes (Nep, Ide and Adam10) [1] | Genomic Activity (X-Gal RA Based Reporter Assay) Efficacy (Emax) [2] | EC50 [2] [nM] | Genomic activity and potency compared to retinoic acid (ATRA) [2] | EC50 (ERK1/2) [nM] | Non-genomic activity (ERK½ Phosphorylation Assay) Efficacy (Emax) (ERK1/2) | Erk 1/2 phosphorylation potency/efficacy compared to retinoic acid (ERK1/2) |
| --- | --- | --- | --- | --- | --- | --- | --- | --- | --- |
| CC1(C)CCC(C)(C)c2cc(C#Cc3ccc(C(=O)O)nc3)ccc21 [DC528, 5-[2-(5,5,8,8-tetramethyl-5,6,7,8-tetrahydronaphthalen-2-yl)ethynyl]pyridine-2-carboxylic acid] | downregulated | upregulated | upregulated | 206.5 | 0.146 | increased genomic activity and potency | 14.2 | 69.15 | higher potency and efficacy |
| CC1(C)CCC(C)(C)c2cc(C#Cc3ccc(C(=O)O)cc3F)ccc21 [DC526, 3-Fluoro-4-[2-(5,5,8,8-tetramethyl-5,6,7,8-tetrahydronaphthalen-2-yl)ethynyl]benzoic acid] | downregulated | upregulated | upregulated | 149.1 | 0.0581 | increased genomic activity and potency | 26.4 | 50.22 | higher potency and efficacy |
| CC1(C)CCC(C)(C)c2nc(C#Cc3ccc(C(=O)O)cc3)cnc21 [DC645, 4-[2-(5,5,8,8-Tetramethyl-5,6,7,8-tetrahydroquinoxalin-2-yl)ethynyl]benzoic acid] | downregulated | upregulated | upregulated | 185.9 | 0.0697 | increased genomic activity and potency | 8.54 | 91.57 | higher potency and efficacy |
